Test results reported in US10159667B2, “Composition containing a DPP-IV inhibitor for preventing or treating renal diseases” (DONG-A ST CO., LTD, priority 2013, dated 2018).
Marks after values point to notes of the source that are not given here.

Columns and labels:
[1] = tested on: db/db mice; experiment: Weight, food intake, water intake, fasting blood glucose, urine output, HbA1c and blood pressure in db/db mice; type: in vivo
Experimental: 6-week old mice were used. db/m mice were set as the non-diabetic control group (7 for each stage, n=28), and divided db/db mice into the diabetic group (7 for each stage, n=28) and DA1229 administration group (n=8). 0.3% (W/W, 300 mg/kg/day) of DA1229, a DPP-IV inhibitor, was mixed with feed and provided to the DA1229 administration group while only feed was provided to the diabetic group. Weight, food intake, water intake, fasting blood glucose, urine output, hemoglobin A1c value (HbA1c) and blood pressure (i.e. systolic blood pressure, SBP) of the non-diabetic control group (db/m control group) and the diabetic group (db/db) were measured at week 0, 4, 8 and 12 of administration; and that of the DA1229 administration group were measured at week 12. HbA1c was measured by using the DCA 2000+ (Bayer Healthcare, Wuppertal, Germany) Analyzer.

[2] = tested on: db/db mice; experiment: Blood lipid concentration in db/db mice; type: in vivo; details: 12th week of administration, FIG. 4
Experimental: In diabetic patients, blood lipids are tend to be increased and lipids are tend to be deposited in liver (i.e. hepatic steatosis) due to failure of lipid metabolism. Following experiment has been conducted to confirm whether DA1229 improves lipid metabolism. […] Concentrations of lipids, that are total cholesterol, triglyceride, HDL-cholesterol and LDL-cholesterol, of plasma of the non-diabetic control group, the diabetic group and the DA1229 administration group were measured at 12th week of administration. Concentration of total cholesterol and triglyceride were measured by using a ELISA reader (Micro-Quant, Bio-Tek Instruments, Colmar, France) after using the GPO-Trinder kit (Sigma, St. Louis, Mo., USA); and HDL-cholesterol and LDL-cholesterol were measured by using a TBA-200FR NEO (Toshiba, Japan).

[3] = tested on: db/db mice; experiment: Hepatic steatosis: H&E-stained liver sections; type: in vivo; details: 12th week of administration, FIG. 5
From the text: Liver tissues collected from the non-diabetic control group, the diabetic group and the DA1229 administration group were sectioned by a microtome and embedded in paraffin after alcohol dehydration at 12th week of administration. These sections were stained by Hematoxylin-eosin, and then lipid deposition was observed by using a microscope (STM6-LM Olympus NDT Inc, USA) (see FIG. 5).

[4] = tested on: db/db mice; experiment: Plasma creatinine by modified Jaffe method; type: in vivo
[5] = tested on: db/db mice; experiment: Microalbuminuria: 24 h urinary albumin excretion by ELISA; type: in vivo; details: FIG. 6
Experimental: When diabetes is progressed, phenomena of renal glomeruli destruction and protein (albumin) excretion incur, and microalbuminuria is directed to a case when the amount of the excretion is small. Microalbuminuria is one of the initial indices of renal diseases, and the gomeruli destruction becomes more severe as diabetes progresses. Accordingly the amount of protein excretion will increase. […] Microalbuminuria was observed by measuring the amount of urinary excretion of albumin during 24 hours in the non-diabetic control group, the diabetic group and the DA1229 administration group at week 0, 4, 8 and 12 of administration. The amount of albumin excretion was measured by using a ELISA reader (Micro-Quant, Bio-Tek Instruments, Colmar, France) after using the ELISA kit (Shibayagi, Shibukawa, Japan).

[6] = tested on: db/db mice; experiment: Histological evaluation of renal mesangial expansion (PAS staining); type: in vivo; details: 12th week of administration, FIG. 7
From the text: Mesangial expansion incurs in kidney when renal destruction progresses in renal diseases. Therefore, glomerular mesangial expansion in the non-diabetic control group, the diabetic group and the DA1229 administration group was observed. […] Renal glomerular tissues were collected and sectioned by a microtome and embedded in paraffin after alcohol dehydration. The sections were stained by using PAS (periodic acid-Schiff); observed by using a microscope (STM6-LM Olympus NDT Inc, USA) (see FIG. 7B); and scored by a pathologist (see FIG. 7A.)

[7] = tested on: db/db mice; experiment: Renal fibrosis: immunohistochemistry of TGF β1, Type IV collagen and PAI-1; type: in vivo; details: 12th week
From the text: Renal glomerular tissues were collected and sectioned by a microtome and embedded in paraffin after alcohol dehydration. The sections were stained via immunohistochemistry; each of deposited TGF β1, Type IV collagen and PAI-1 in kidney was observed by using a microscope (STM6-LM Olympus NDT Inc, USA) (see FIG. 8); and degree and range of the staining were scored by a pathologist (see FIG. 9).

[8] = tested on: db/db mice; experiment: Renal lipid metabolism: mRNA expression of ABCA1 and HMG-CoA reductase; type: in vivo; details: 12th week, FIGS. 11 and 12
[9] = tested on: db/db mice; experiment: Urinary nephrin excretion by EIA, normalized by creatinine; type: in vivo; details: FIG. 13
From the text: Nephrin is a protein expressed on cell membrane of podocyte which forms glomerular filtration membrane. Nephrin forms a filtration barrier by binding to adjacent podocyte. When proteinuria incurs due to glomerular damage, nephrin barrier is damaged because nephrin expression in podocyte decreases, and accordingly, urinary excretion of nephrin increases. Therefore, urinary excretion of nephrin and nephrin expression in kidney in the non-diabetic control group, the diabetic group and the DA1229 administration group were observed. […] It was then normalized by creatinine excretion, which is proportional to a volume of urination (measured by the modified Jaffe method) and shown in the left-hand side graph in FIG. 13.

[10] = tested on: db/db mice; experiment: Renal nephrin expression by immunostaining; type: in vivo; details: FIG. 13
From the text: Nephrin is a protein expressed on cell membrane of podocyte which forms glomerular filtration membrane. Nephrin forms a filtration barrier by binding to adjacent podocyte. When proteinuria incurs due to glomerular damage, nephrin barrier is damaged because nephrin expression in podocyte decreases, and accordingly, urinary excretion of nephrin increases. Therefore, urinary excretion of nephrin and nephrin expression in kidney in the non-diabetic control group, the diabetic group and the DA1229 administration group were observed. […] In addition, kidneys were isolated from each group; renal tissues were separated, immunostained with nephrin-specific antibody, and observed by using a microscope. Result is shown in right-hand side of FIG. 13. It is shown that observed nephrin was few in the diabetic group compared to the non-diabetic control group, but much in the DA1229 administration group.

[11] = tested on: non-diabetic renal disease mouse model; experiment: Microalbuminuria and nephrin excretion in adriamycin (ADX) non-diabetic renal disease mouse model; type: in vivo, mice; details: for urinary excretion of albumin / urinary excretion of nephrin: ADX 13 mg/kg i.v. mice, vs control
Experimental: Non-diabetic renal diseases occurs via induction of glomerular podocyte damage when injecting adriamycin (hereinafter, ADX) that is an anti-cancer agent. Thirty mice at the age of 6 weeks were divided into 3 groups (n=10/group) after single intravenous injection of 13 mg/kg of ADX. For the first group, the administration of DA1229 was initiated immediately and maintained while renal disease incurred and developed. For the second group, administration of DA1229 was performed 3 weeks after single ADX injection, for the purpose of administering DA1229 after renal disease was progressed to some degree. The third group was set as a control group without any additional action. DA1229 was administered as a mixture with diet at 0.3% (W/W, 300 mg/kg/day) to the first and second groups. Only feed was provided to the control group. Microalbuminuria and nephrin excretion of each group were measured at 5th week of administration.

[12] = tested on: podocytes; experiment: Nephrin expression in podocytes under glucose and angiotensin II stimuli (western blot); type: cell-based; details: 10 nM, 72 hours, 30 mM glucose and 100 nM angiotensin II, FIG. 18
Experimental: Effects of DA1229, linagliptin, saxagliptin and sitagliptin on nephrin expression under stimuli of glucose and angiotensin II that are same to the stimulation occurring in diabetes were observed below.
Podocytes were cultured for 72 hours in media containing 30 mM of glucose, 100 nM of angiotensin II; and any one of 10 nM of DA1229, 10 nM of linagliptin, 1 nM of saxagliptin and 10 nM of sitagliptin. After that, the media were removed; cells were lysed; and changes of intracellularly expressed nephrin were measured through western blot by using polyclonal antibody (Santa Crúz, SC-19000.)

[13] = tested on: db/db mice; experiment: Renal fibrosis: mRNA expression of TGF β1, Type IV collagen and PAI-1 by real-time PCR; details: 12th week, relative to β-actin, FIG. 10
[14] = DA1229 0.3% W/W in feed (300 mg/kg/day), wk 12, mean ± SEM
[15] = DA1229 administered for 12 weeks

SMILES: CC(C)(C)OC[C@@H]1C(=O)NCCN1C(=O)C[C@H](N)Cc1cc(F)c(F)cc1F [DA1229, (R)-4-{(R)-3-amino-4-(2,4,5-trifluorophenyl)butanoyl}-3-(t-butoxymethyl)piperazin-2-one]
- Daily Water Intake [1, 14]: 8.6 ± 0.4**^,# g
- Fasting Blood Glucose [1, 14]: 466 ± 66 mg/dL
- HbAlc [1, 14]: 8.58 ± 0.79 %
- Urine Output [1, 14]: 1.07 ± 0.29 mL/day
- fasting blood glucose compared to the diabetic group [1, 15]: markedly decreased
- urine output compared to the diabetic group [1, 15]: no significant differences
- water intake compared to the diabetic group [1, 15]: markedly decreased
- plasma LDL-cholesterol concentration [2]: restored to the level of the non-diabetic control group
- plasma total cholesterol concentration [2]: restored to the level of the non-diabetic control group
- plasma triglyceride concentration [2]: restored to the level of the non-diabetic control group
- lipid deposition of liver tissues [3]: restored to the level of the non-diabetic control group
- Plasma Creatinine ([4]; DA1229 300 mg/kg/day in feed, wk 12, ± SEM): 29.0 ± 2.0 µmol/L
- plasma creatinine compared to the diabetic group ([4]; wk 12): markedly decreased
- microalbuminuria until 4th week [5]: not observed
- amount of urinary excretion of albumin after 4th week ([5]; vs diabetic group): much smaller than that of the diabetic group
- glomerular mesangial expansion [6]: improved to a level close to the non-diabetic control group
- TGF β1 deposited in kidney (immunohistochemistry) ([7]; FIGS. 8A and 9): markedly decreased
- Type IV collagen deposited in kidney (immunohistochemistry) ([7]; FIGS. 8B and 9): decreased to the level of the non-diabetic control group
- PAI-1 deposited in kidney (immunohistochemistry) ([7]; FIGS. 8C and 9): decreased to the level of the non-diabetic control group
- renal mRNA expression of ABCA1 [8]: markedly increased
- renal mRNA expression of HMG-CoA reductase [8]: decreased to the level of the non-diabetic control group
- content of nephrin in urine [9]: markedly decreased
- nephrin observed in renal tissue (immunostaining) [10]: much
- urinary excretion of albumin ([11]; first group: DA1229 300 mg/kg/day started with induction of renal disease, FIG. 14A): significantly decreased
- urinary excretion of nephrin ([11]; first group: DA1229 300 mg/kg/day started with induction of renal disease, FIG. 14B): significantly decreased
- urinary excretion of albumin ([11]; second group: DA1229 300 mg/kg/day started 3 weeks after ADX, FIG. 15A): significantly decreased
- urinary excretion of nephrin ([11]; second group: DA1229 300 mg/kg/day started 3 weeks after ADX, FIG. 15B): significantly decreased
- effect of decreasing albumin excretion over time ([11]; ADX mice, second group, FIG. 15): became more significant as time passed
- nephrin expression in podocytes [12]: maintained equally to the control group
- renal mRNA expression of PAI-1 [13]: markedly decreased
- renal mRNA expression of TGF β1 [13]: markedly decreased
- renal mRNA expression of Type IV collagen [13]: markedly decreased

SMILES: N[C@@H](CC(=O)N1CCn2c(nnc2C(F)(F)F)C1)Cc1cc(F)c(F)cc1F [sitagliptin, reference compound]
- nephrin expression in podocytes [12]: almost no difference compared to the group treated only with glucose and angiotensin II
